One series concerns the target T1, Δ29 DHODH (N-truncated) (Homo sapiens, UniProt Q02127).
T1 construct: N-terminal truncated form of human DHODH (Δ29), where the N-terminal transmembrane domain was removed; made in house
The series can be described thus: In vitro DHODH enzyme activity assay. Type of series: biochemical. The settings on record: 1 mM DHO; ± SD. As for the experimental part: The assays to determine the inhibition constants of inhibitors of the recombinant DHODH enzymes are described in [28, 29].
The IC50 values were determined by fitting the equation V = V max/(1 + (I/IC50)^h) to the assay data using SigmaPlot14 (Systat Software Inc.). In this equation, V represents the measured enzyme activity, while V max indicates the maximum enzyme activity reached. I denotes the inhibitor concentration, and h describes the slope of the fitted curve.

In series [1] the test system is colorectal cancer cells. The series can be described thus: Western blot. Type of series: cell-based, human. The settings on record: NK-A 17E-233I 25 µM; Brequinar. As to the method: Cancer cells (2.2 × 10^6) were cultured in 100-mm Petri dishes and treated with DMSO or NK-A 17E-233I (25 µM) for 48 h. Cells were harvested by scrapping into 2 × Laemmli buffer (4% SDS, 20% glycerol, 125 mM Tris–HCl, pH 6.8) and heated at 100 °C for 5 min. A 4 × Laemmli sample buffer containing β-mercaptoethanol was added to the cell lysates. The proteins were separated using sodium dodecyl sulfate polyacrylamide gel electrophoresis (SDS-PAGE) and subsequently transferred to polyvinylidene fluoride (PVDF) membranes (#88518; Thermo Fisher Scientific) following the manufacturer’s protocols. The membranes were blocked at room temperature for 1 h with 5% dried skimmed milk in Tris-buffered saline with Tween-20 (TBS-T) (20 mM Tris–HCl, pH 7.5, 150 mM NaCl, 0.1% Tween-20), and the blots were incubated with the corresponding antibodies at a dilution of 1:1000–1:3000 in a blocking buffer at 4 °C overnight.
Primary antibodies utilized in this study included: anti-human DHODH (#SC-166348; Santa Cruz), anti–CHK1-pS345 (#2348; Cell Signaling), anti-POLD2 (#29765–1-AP; Proteintech), anti-POLD1 (#15646–1-AP; Proteintech), anti-p53 (#SC-126; Santa Cruz), anti-KRAS, clone 4F3 (#SAB1404011; Sigma-Aldrich), anti-GAPDH (#ab9489; Abcam), anti–α-tubulin (#T9026; Sigma-Aldrich), anti-BAX (#SC-23959; Santa Cruz), anti-cytochrome c (#66264–1-IG; Proteintech), anti-DR5 (#3696; Cell Signaling, dilution 1:500), anti–caspase-8 (#SC-56070; Santa Cruz), and anti–caspase-3 (#9662; Cell Signaling, dilution 1:500). The membranes were incubated at room temperature for 1 h with secondary antibodies (diluted 1:3000–5000), either anti-rabbit (#A0545; Sigma-Aldrich) or anti-mouse IgG-horseradish peroxidase-conjugated (#A9044; Sigma-Aldrich), in TBS-T. The images were analyzed and quantified using ImageStudio software (LI-COR) or ImageQuant 10.2 TL analysis software (Cytiva Life Sciences).
Background: In western blotting, separated proteins are transferred to a membrane and probed.

For series [2], the system named is SW620 cells. The series can be described thus: Mitochondrial respiration (OCR) in intact cells. In kind it is cell-based, human. The settings on record: 24 h. As for the experimental part:
Oxygen consumption rate (OCR) was measured using a high-resolution respirometer (Oxygraph-2k, Oroboros Instruments, Innsbruck, Austria). SW620 cells (2.2 × 10^6) were cultured in 100-mm Petri dishes and treated with DMSO or NK-A 17E-233I (25 µM) for 24 h. Cells were harvested at 80% confluency using 0.25% trypsin/EDTA and resuspended in complete DMEM at a concentration of 5 × 10^5 cells/mL. The cells were subsequently analyzed in two 2 mL Oxygraph chambers. Real-time measurements of OCR were conducted at 37 °C under basal conditions and following the sequential addition of inhibitors targeting various mitochondrial respiratory complexes: oligomycin (2.5 μM) to inhibit complex V (to assess ATP-linked respiration and leak rate), carbonyl cyanide-p-trifluoromethoxyphenylhydrazone (FCCP) with stepwise titration in 0.5 μM increments (to evaluate maximal electron transport system respiratory capacity and reserve capacity), and rotenone (0.5 μM) and antimycin A (2.5 μM) to inhibit complex I and complex III, respectively (to measure non-mitochondrial oxygen consumption). The values of OCR were normalized to mitochondrial DNA copy number, which was quantified by qPCR using the primers referenced above. Data analysis was performed using DatLab7 (Oroboros, Austria) software.

The test system of series [3] is SW620 cells. The series can be described thus: Complex I- and complex II-dependent respiration (permeabilized cells). Conditions: 100 µM, 24 h. Type of series: cell-based, human. As to the method:
Following treatment, cells were detached using trypsin–EDTA, washed with PBS, and resuspended in MiR05 media (composed of 110 mM sucrose, 60 mM potassium-lactobionate, 0.5 mM EGTA, 3 mM MgCl2·6H2O, 20 mM taurine, 10 mM KH2PO4, 20 mM HEPES adjusted to pH 7.1 with KOH at 37 °C, and 1 g/L BSA) at a concentration of 5 × 10^5 cells/mL. The cells were then transferred into 2 mL Oxygraph chambers for real-time measurement of OCR. Initial permeabilization was achieved using 7 μg of digitonin, followed by the sequential addition of substrates and inhibitors: 5 mM ADP, 2 mM malate, 10 μM cytochrome c, 5 mM pyruvate, 10 mM glutamate, 10 mM succinate, 0.5 μM rotenone, and 2.5 μM antimycin A. Mitochondrial membrane integrity was confirmed through the addition of cytochrome c (10 μM), with observed changes in OCR remaining below 10%. Complex I-mediated respiration was evaluated following the addition of complex I substrates (malate/pyruvate/glutamate), while complex II-mediated respiration was assessed in the presence of the complex II substrate (succinate) and the complex I inhibitor (rotenone). Residual oxygen consumption after the addition of antimycin A was subtracted from all the results to yield mitochondria-specific rates. […] Oxygen consumption rates were expressed as picomoles (pmol) per second per million cells (Mill) and normalized to the mitochondrial copy number in each sample.

For series [4], the system named is SW620 cells. The series can be described thus: DHODH-dependent respiration (permeabilized cells). Type of series: cell-based, human. The settings on record: 24 h; NK-A 17E-233I 25 µM, Brequinar 100 µM; excess exogenous DHO. As to the method:
Cells were resuspended in MiR05 medium and transferred into the chambers of the Oxygraph-2k instruments. The OCR in digitonin-permeabilized cells was monitored in the presence of the complex I inhibitor (0.5 μM rotenone), 1 mM DHO, 3 mM ADP, 10 μM cytochrome c, and 30 μM Leflunomide. DHODH-mediated respiration was calculated by subtracting the residual respiration rate after the addition of 30 μM Leflunomide from the respiration rate measured in the presence of 0.5 μM rotenone, 1 mM DHO, 3 mM ADP, and 10 μM cytochrome c.

The subject of series [5] is SW620 cells. Conditions: 96 h.
Another series has as its target human DHODH. Conditions: cited from earlier work.
The subject of the next series is DHODH. More on the design: method as in PMID 35184687. The settings on record: 100 µM; same experimental setup; cited from earlier work.
Series [6] has as its system colorectal cancer cells. The series can be described thus: Flow cytometry-based cell cycle analysis. Also noted: species or system human. The settings on record: washout 12 h; NK-A 17E-233I 25 µM, HU 1 mM. As to the method: Cancer cells (3 × 10^4) were cultured in 48-well plates and treated with DMSO or NK-A 17E-233I (25 µM) for 24 h. Following treatment, all wells were washed with PBS (#P4417; Sigma-Aldrich), and the cells were collected in Eppendorf tubes. The cells were harvested using 0.25% trypsin (#25200056; ThermoScientific) and 0.02% EDTA (1:1) (#17892; ThermoFisher Scientific) for 2 min, followed by the addition of DMEM. The tubes were then centrifuged at 500 × g for 5 min. The supernatant was discarded, and the pellets were fixed in 70% cold ethanol and stored at -20 °C for at least 1 h. The pellets were resuspended in 1 mL PBS and centrifuged at 500 × g at 4 °C for 5 min. The supernatant was discarded once again, and the pellets were subsequently reconstituted in a solution containing propidium iodide (PI; #25,535–16-4, Merck) and RNase (#N8080119, Applied Biosystems), followed by storage at 4 °C overnight. Cell cycle analysis was conducted using a CytoFLEX flow cytometer (Beckman Coulter; 405 nm laser). Cells were gated based on size and granularity on a forward scatter (FSC)/side scatter (SSC) plot, with cell debris excluded from the analysis. Mean fluorescence intensity from 1 × 10^4 cells was recorded. Data analysis was conducted using FlowJo software v10.8.1 (BD Life Sciences).

Results on six compounds are retold here after article PMC12534982 (Journal of Experimental & Clinical Cancer Research : CR, 2025).

Broadly, the IC50 is the midpoint of a concentration-inhibition curve. The low end stands for greater potency in that assay, the high end for weaker potency in that assay. The term Ki denotes the dissociation constant of the complex between target and ligand, obtained from inhibition or displacement. Broadly, the ΔTm is the change in melting temperature against a reference sample.

T1 sequence (Q02127 29-395, stated change not applied): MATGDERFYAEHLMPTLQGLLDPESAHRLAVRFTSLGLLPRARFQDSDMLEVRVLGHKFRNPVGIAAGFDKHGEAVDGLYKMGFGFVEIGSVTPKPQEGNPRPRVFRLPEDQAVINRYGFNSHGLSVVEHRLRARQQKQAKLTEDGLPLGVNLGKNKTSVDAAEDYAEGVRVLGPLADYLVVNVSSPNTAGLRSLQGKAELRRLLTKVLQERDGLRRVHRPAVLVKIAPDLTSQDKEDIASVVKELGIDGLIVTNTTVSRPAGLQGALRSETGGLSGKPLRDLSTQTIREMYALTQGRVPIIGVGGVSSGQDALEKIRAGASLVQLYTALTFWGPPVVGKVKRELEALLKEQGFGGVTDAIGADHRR

With `Cc1c(-c2ccc(-c3ccccc3F)cc2)nc2ccc(F)cc2c1C(=O)O` [Brequinar, reference compound], the “average of the fitted slopes” value on Δ29 DHODH (N-truncated) was 1.1 ± 0.2. Also, the “levels of p53-mutant protein” value with colorectal cancer cells [1] was “did not have an observed effect”. In addition, the “parameters of mitochondrial respiration in intact cells” value in the series with SW620 cells [2] (100 µM) is “decreased most of these respiration parameters”. Besides, in the series with SW620 cells [2] (NK-A 17E-233I 25 µM, Brequinar 100 µM), the “basal and ATP-linked respiration in intact cells” value is reported as “significantly decreased”. For the same compound, the “complex II-mediated respiration” value in the series on SW620 cells [3] is listed as “stimulated”. For the same compound, the “DHODH-mediated oxygen consumption rate” value with SW620 cells [4] is given as “reduced”. Moreover, in the series with SW620 cells [5], the IC50 was 100 µM.

As to `O=C(O)c1cc(=O)[nH]c(=O)[nH]1` [orotate], on human DHODH (competitive inhibitor concerning DHO), the Ki is 11 µM.

As for `O=C1C(O)=C([C@H]2CC[C@H](c3ccc(Cl)cc3)CC2)C(=O)c2ccccc21` [Atovaquone], the “mode of inhibition with respect to DHO” value with human DHODH is on record as “uncompetitive inhibitors”.

As to `O=C1CC(C(=O)O)NC(=O)N1` (stereo not drawn) [DHO, dihydroorotate], the ΔTm with DHODH is 3.5 °C.

Turning to `NC(=O)NO` [HU, hydroxyurea, reference compound], the “cell cycle after washout” value with colorectal cancer cells [6] was “resumed proliferation”.

As for `C/C(O)=C(\C#N)C(=O)Nc1ccc(C(F)(F)F)cc1` [Teriflunomide], in the series on human DHODH, the “mode of inhibition with respect to DHO” value was “uncompetitive inhibitors”.
